Laboratory results published in BindingDB's records for doi:10.1021/jm058276a (Duquesne University, 2006).

What follows are molecules tested against T1, Dihydrofolate reductase (Homo sapiens, UniProt P00374) (assay: Dihydrofolate Reductase (DHFR) Assay). Conditions: pH 7.4; 30 °C.
T1 sequence (P00374 whole entry): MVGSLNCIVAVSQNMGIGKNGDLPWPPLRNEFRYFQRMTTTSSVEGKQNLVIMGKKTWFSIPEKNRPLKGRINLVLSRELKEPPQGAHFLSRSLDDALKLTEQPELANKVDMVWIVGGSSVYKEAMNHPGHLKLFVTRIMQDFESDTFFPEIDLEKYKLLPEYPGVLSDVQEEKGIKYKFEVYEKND
Protocol: DHFRs were assayed spectrophotometrically in the reaction buffer solution containing dihydrofolate. The reaction was initiated with an amount of enzyme yielding a change in optical density at 340 nm of 0.015/min.

For `CCc1[nH]c2nc(N)[nH]c(=O)c2c1Sc1c(C)cccc1C` [2-amino-5-[(2,6-dimethylphenyl)sulfanyl]-6-ethyl-3H,4H,7H-pyrrolo[2,3-d]pyrimidin-4-one], which IC50 is on record?
Its IC50 is over 31 µM.

`CCc1[nH]c2nc(N)[nH]c(=O)c2c1Sc1ccc(Cl)c(Cl)c1` [2-amino-5-[(3,4-dichlorophenyl)sulfanyl]-6-ethyl-3H,4H,7H-pyrrolo[2,3-d]pyrimidin-4-one] was tested. Which IC50 did it give?
Its IC50 is over 27 µM.

With `CCc1[nH]c2nc(N)nc(O)c2c1Sc1cccc(Br)c1` [2-amino-5-[(3-bromophenyl)sulfanyl]-6-ethyl-3H,4H,7H-pyrrolo[2,3-d]pyrimidin-4-one] as the molecule, how does the IC50 read?
The IC50 was over 27 µM.

Which IC50 does the source give for `CCc1[nH]c2nc(N)nc(O)c2c1Sc1cccc(Cl)c1` [2-amino-5-[(3-chlorophenyl)sulfanyl]-6-ethyl-3H,4H,7H-pyrrolo[2,3-d]pyrimidin-4-one] here?
The IC50 was over 31 µM.

How did the IC50 turn out when `CCc1[nH]c2nc(N)nc(O)c2c1Sc1ccc(Br)cc1` [2-amino-5-[(4-bromophenyl)sulfanyl]-6-ethyl-3H,4H,7H-pyrrolo[2,3-d]pyrimidin-4-one] was run?
The IC50 was over 26 µM.

How did the IC50 turn out when `CCc1[nH]c2nc(N)[nH]c(=O)c2c1Sc1cc(C(F)(F)F)cc(C(F)(F)F)c1` [2-amino-5-{[3,5-bis(trifluoromethyl)phenyl]sulfanyl}-6-ethyl-3H,4H,7H-pyrrolo[2,3-d]pyrimidin-4-one] was run?
Its IC50 is over 24 µM.

With `CCc1[nH]c2nc(N)nc(O)c2c1Sc1ccc(F)cc1` [2-amino-6-ethyl-5-[(4-fluorophenyl)sulfanyl]-3H,4H,7H-pyrrolo[2,3-d]pyrimidin-4-one] as the molecule, how does the IC50 read?
Its IC50 is over 32 µM.

`CCc1[nH]c2nc(N)nc(O)c2c1Sc1ccc([N+](=O)[O-])cc1` [2-amino-6-ethyl-5-[(4-nitrophenyl)sulfanyl]-3H,4H,7H-pyrrolo[2,3-d]pyrimidin-4-one] was tested. Which IC50 did it give?
The IC50 was over 29 µM.
